Assay [1] addresses Epithelial discoidin domain-containing receptor 1 (Homo sapiens) (UniProt Q08345). Description: Selectivity interaction (KinomeScan (DiscoverX)) EUB0000607a DDR1. The conditions noted are these: at 10 µM.
Assay [2] has as its target MAP kinase-activated protein kinase 2 (Homo sapiens, UniProt P49137). Description: Selectivity interaction (KinomeScan (DiscoverX)) EUB0000607a MAPKAPK2. Conditions: at 10 µM.
Assay [3] has as its target Proto-oncogene tyrosine-protein kinase Src (Homo sapiens, UniProt P12931). Description: Selectivity interaction (SelectScreen profiling (Invitrogen)) EUB0000607a SRC. The conditions noted are these: at 2 µM.
For assay [4], the target named is T1, Serine/threonine-protein kinase DCLK2 (Homo sapiens) (UniProt Q8N568).
T1 sequence (whole entry): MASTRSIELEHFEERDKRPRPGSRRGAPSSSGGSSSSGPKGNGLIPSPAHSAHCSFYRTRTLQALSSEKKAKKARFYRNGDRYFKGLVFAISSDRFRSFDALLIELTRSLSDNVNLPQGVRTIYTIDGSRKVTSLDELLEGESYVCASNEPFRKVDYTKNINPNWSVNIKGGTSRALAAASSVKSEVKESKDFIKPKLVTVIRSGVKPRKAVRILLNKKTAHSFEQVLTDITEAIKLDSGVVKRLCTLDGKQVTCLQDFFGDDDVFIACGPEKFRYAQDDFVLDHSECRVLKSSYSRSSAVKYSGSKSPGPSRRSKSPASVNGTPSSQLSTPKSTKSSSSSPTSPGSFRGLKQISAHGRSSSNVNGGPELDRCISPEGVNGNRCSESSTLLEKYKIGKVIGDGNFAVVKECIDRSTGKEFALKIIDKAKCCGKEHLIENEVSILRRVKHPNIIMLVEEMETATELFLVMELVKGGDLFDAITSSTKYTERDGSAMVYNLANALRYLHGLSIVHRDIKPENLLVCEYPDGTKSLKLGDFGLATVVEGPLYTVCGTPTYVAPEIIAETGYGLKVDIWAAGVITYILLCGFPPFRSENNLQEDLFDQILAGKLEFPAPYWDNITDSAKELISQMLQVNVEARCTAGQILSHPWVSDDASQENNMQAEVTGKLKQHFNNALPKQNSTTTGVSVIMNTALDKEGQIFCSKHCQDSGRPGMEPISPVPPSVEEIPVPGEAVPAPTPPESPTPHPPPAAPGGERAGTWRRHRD
Description: Selectivity interaction (KinomeScan (DiscoverX)) EUB0000229b DCLK2. The conditions noted are these: at 10 µM.

Assay [5] has as its target Protein kinase C eta type (Homo sapiens) (UniProt P24723). Description: Selectivity interaction (KinomeScan (DiscoverX)) EUB0000655a PRKCH. Conditions: at 10 µM.
For assay [6], the target named is Activated CDC42 kinase 1 (Homo sapiens, UniProt Q07912). Description: Selectivity interaction (ActivX KiNativ screen (ex vivo kinase selectivity in human PBMCs)) EUB0001619a TNK2. Conditions: PBMC, at 1 µM. It counts as cell-based.
For assay [7], the target named is Leukocyte tyrosine kinase receptor (Homo sapiens, UniProt P29376). Description: Selectivity interaction (Kinase panel (Invitrogen)) EUB0000639a LTK. The conditions noted are these: at 200 nM.
In assay [8] the target is Tyrosine-protein kinase ABL1 (Homo sapiens, UniProt P00519). Conditions: at 10 µM.
In assay [9] the target is Serine/threonine-protein kinase N2 (Homo sapiens, UniProt Q16513). Kind of assay: Selectivity interaction (KinomeScan (DiscoverX)) EUB0000695a PKN2. Conditions: at 100 nM.
Assay [10] has as its target Serine/threonine-protein kinase WNK3 (Homo sapiens) (UniProt Q9BYP7). Kind of assay: Selectivity interaction (KinomeScan (DiscoverX)) EUB0000695a WNK3. The conditions noted are these: at 100 nM.
For assay [11], the target named is Homeodomain-interacting protein kinase 2 (Homo sapiens, UniProt Q9H2X6). Description: Selectivity interaction (KinomeScan (DiscoverX)) EUB0000092b HIPK2. Conditions: at 10 µM.
Assay [12] addresses Angiopoietin-1 receptor (Homo sapiens) (UniProt Q02763). Description: Selectivity interaction (KinomeScan (DiscoverX)) EUB0000092b TEK. The conditions noted are these: at 10 µM.
The target in assay [13] is T2, Myosin light chain kinase family member 4 (Homo sapiens) (UniProt Q86YV6).
T2 sequence (whole entry): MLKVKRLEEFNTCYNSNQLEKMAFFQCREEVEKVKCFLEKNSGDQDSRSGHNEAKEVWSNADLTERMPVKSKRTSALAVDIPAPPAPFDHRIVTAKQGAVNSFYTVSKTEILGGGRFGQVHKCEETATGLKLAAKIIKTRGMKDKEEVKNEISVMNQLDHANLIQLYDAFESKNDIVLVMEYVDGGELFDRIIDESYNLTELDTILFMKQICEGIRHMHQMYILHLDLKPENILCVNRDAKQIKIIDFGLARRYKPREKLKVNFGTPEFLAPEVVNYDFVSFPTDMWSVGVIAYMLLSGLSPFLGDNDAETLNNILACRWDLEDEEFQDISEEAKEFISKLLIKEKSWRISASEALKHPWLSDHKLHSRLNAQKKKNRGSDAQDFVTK
Description: Selectivity interaction (KinomeScan (DiscoverX)) EUB0001550a MYLK4. The conditions noted are these: at 1 µM.

Assay [14] concerns the target T3, Tyrosine-protein kinase receptor TYRO3 (Homo sapiens) (UniProt Q06418).
T3 sequence (whole entry): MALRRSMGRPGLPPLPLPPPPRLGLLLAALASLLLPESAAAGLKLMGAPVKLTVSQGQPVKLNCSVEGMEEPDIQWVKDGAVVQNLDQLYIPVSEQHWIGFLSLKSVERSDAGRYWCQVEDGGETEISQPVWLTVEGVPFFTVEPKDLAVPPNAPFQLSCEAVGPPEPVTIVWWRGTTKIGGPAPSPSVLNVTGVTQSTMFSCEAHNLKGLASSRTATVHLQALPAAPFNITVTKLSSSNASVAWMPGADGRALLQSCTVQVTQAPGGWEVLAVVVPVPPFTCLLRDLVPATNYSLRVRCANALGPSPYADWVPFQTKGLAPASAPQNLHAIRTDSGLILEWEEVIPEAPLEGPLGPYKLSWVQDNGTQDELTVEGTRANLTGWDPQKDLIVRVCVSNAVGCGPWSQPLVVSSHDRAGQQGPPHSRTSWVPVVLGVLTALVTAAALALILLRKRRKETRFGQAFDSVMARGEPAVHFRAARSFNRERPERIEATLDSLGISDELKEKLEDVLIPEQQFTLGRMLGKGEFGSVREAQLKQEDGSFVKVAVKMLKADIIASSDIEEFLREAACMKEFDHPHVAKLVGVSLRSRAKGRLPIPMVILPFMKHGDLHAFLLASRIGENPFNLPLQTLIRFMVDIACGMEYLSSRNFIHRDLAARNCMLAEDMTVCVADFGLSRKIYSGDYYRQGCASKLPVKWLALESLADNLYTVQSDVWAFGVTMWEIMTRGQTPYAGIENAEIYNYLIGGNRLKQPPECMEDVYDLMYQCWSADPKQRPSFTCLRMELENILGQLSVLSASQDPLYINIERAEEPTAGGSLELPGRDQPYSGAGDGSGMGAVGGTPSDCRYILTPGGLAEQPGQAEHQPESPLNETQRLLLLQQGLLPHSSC
Kind of assay: Selectivity interaction (KinomeScan (DiscoverX)) EUB0000595a TYRO3. Conditions: at 10 µM.

Sequence of Homeodomain-interacting protein kinase 2 (Q9H2X6 whole entry, looked up): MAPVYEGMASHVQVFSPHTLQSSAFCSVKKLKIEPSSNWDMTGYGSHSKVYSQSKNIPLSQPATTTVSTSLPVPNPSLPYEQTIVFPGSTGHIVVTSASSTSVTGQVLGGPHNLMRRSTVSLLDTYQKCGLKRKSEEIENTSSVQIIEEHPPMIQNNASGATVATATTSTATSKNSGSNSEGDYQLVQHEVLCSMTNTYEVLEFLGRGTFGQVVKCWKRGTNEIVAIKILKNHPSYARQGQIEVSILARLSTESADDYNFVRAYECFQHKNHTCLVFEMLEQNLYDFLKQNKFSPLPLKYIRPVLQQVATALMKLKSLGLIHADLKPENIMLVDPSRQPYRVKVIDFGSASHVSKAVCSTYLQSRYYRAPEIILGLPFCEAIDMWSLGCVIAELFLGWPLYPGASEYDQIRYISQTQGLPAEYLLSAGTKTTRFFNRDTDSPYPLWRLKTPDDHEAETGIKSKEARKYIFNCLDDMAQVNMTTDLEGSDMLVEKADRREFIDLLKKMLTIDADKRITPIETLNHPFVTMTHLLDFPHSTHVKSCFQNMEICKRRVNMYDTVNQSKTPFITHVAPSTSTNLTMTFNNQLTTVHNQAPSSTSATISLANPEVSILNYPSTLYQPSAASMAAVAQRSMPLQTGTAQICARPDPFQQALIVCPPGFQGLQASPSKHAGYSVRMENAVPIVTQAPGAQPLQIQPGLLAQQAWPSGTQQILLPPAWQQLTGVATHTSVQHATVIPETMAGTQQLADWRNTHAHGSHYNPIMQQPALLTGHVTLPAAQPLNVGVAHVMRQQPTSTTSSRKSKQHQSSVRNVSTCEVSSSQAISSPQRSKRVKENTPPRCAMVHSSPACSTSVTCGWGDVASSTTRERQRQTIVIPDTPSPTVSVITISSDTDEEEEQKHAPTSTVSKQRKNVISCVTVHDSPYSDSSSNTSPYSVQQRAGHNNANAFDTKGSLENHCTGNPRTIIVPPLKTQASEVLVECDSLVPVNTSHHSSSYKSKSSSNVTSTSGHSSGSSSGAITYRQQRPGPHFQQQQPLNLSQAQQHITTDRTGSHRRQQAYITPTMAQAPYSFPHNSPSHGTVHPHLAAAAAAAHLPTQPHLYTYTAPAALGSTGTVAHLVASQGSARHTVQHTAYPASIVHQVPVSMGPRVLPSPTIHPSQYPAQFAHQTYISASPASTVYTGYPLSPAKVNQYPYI
Sequence of Protein kinase C eta type (Homo sapiens) (P24723 whole entry): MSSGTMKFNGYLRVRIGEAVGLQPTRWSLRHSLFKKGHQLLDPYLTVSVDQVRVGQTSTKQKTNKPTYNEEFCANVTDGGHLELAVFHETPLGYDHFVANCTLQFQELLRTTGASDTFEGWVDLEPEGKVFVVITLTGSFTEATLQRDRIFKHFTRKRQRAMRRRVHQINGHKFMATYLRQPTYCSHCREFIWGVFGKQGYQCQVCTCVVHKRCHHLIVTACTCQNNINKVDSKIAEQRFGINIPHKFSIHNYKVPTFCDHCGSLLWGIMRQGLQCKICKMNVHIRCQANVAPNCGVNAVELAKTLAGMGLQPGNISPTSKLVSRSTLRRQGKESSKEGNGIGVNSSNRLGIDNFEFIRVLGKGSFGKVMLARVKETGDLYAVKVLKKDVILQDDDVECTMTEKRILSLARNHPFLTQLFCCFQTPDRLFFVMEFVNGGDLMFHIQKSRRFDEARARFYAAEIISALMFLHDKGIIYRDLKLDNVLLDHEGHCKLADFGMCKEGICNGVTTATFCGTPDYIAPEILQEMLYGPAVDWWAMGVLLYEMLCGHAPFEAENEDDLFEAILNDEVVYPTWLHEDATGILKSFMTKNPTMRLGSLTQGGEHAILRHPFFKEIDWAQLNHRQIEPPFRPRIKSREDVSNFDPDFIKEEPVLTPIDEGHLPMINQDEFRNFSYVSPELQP
Sequence of Tyrosine-protein kinase ABL1 (P00519 whole entry): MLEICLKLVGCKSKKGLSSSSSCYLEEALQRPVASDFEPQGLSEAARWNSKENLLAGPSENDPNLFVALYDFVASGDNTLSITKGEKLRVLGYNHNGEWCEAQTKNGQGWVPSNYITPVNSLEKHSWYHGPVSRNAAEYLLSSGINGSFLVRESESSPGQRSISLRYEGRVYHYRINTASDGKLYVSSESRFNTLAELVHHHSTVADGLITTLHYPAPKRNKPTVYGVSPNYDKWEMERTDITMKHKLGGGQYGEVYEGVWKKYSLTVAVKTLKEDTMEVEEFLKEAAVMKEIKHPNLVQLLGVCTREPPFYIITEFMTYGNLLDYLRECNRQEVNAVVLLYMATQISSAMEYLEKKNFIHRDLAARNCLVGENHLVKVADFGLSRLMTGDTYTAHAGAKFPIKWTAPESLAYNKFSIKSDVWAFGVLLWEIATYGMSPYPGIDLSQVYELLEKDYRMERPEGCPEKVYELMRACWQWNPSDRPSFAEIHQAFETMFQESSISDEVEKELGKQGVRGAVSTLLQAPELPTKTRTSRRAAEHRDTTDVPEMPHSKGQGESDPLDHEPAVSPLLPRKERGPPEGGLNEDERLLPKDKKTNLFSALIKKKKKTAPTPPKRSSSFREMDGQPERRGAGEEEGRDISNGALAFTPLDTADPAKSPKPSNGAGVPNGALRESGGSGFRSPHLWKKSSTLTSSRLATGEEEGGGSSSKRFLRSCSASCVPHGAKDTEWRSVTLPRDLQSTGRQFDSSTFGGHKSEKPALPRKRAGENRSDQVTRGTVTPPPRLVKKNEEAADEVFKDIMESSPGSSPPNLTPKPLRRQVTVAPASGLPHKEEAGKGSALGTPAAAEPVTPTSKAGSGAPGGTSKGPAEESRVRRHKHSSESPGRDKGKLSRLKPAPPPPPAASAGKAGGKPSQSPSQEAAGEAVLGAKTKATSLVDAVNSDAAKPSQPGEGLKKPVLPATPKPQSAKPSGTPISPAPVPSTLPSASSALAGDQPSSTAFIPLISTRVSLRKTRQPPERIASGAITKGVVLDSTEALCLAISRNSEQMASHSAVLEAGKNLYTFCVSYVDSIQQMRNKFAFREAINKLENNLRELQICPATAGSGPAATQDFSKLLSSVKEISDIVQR
Sequence of Serine/threonine-protein kinase WNK3 (Homo sapiens) (Q9BYP7 whole entry): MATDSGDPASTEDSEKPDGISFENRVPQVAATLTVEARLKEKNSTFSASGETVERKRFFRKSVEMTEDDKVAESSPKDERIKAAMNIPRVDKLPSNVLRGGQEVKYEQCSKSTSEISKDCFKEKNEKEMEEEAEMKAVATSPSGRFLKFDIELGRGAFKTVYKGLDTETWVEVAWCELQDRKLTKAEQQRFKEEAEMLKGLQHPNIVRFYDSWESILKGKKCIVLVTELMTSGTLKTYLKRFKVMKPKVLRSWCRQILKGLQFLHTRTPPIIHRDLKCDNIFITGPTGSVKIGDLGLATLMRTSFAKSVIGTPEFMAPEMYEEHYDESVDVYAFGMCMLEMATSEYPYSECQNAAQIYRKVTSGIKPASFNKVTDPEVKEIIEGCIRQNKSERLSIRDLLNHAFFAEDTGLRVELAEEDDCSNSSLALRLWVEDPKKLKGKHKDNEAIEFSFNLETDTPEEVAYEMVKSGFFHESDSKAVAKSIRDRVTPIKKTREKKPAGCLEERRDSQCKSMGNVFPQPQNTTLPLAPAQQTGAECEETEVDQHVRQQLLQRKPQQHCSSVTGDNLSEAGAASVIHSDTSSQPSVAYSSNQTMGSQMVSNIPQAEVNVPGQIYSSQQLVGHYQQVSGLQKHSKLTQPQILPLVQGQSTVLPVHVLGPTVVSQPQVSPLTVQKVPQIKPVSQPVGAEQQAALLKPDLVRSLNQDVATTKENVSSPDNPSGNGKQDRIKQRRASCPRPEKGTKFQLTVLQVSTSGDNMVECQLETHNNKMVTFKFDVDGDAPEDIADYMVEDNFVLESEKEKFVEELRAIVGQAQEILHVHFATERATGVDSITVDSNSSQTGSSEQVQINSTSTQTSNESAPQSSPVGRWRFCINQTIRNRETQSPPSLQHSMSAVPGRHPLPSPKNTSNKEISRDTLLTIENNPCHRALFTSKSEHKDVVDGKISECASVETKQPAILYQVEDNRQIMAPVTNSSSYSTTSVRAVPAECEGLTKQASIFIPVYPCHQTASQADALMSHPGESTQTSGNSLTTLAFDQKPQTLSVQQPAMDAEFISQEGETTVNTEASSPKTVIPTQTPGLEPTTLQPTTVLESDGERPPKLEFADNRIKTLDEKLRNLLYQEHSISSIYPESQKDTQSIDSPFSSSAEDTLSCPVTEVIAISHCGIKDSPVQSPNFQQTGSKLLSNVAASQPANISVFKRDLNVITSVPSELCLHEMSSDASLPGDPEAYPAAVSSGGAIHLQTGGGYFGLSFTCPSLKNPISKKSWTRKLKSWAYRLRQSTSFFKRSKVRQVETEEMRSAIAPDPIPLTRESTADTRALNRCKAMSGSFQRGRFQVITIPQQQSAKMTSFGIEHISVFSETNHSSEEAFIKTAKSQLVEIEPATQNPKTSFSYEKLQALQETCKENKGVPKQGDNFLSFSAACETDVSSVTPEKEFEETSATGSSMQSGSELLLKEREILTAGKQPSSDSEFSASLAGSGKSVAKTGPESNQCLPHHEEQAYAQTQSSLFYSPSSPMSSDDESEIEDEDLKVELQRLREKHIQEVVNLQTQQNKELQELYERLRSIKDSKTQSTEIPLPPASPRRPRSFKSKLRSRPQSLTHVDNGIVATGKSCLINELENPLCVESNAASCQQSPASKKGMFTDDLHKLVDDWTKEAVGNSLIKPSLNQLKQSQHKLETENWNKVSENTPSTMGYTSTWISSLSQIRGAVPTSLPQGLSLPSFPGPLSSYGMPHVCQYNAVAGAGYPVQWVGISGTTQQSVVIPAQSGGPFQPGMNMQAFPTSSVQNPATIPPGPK

With `CNC(=O)Nc1ccc(-c2nc(N3CC4CCC(C3)O4)c3cnn(C4CCC5(CC4)OCCO5)c3n2)cc1`, the % of control was found to be 66% in assay [1] and 82% in [2]. Moreover, in assay [3], the % of inhibition amounted to 7%.

In assay [4], `COc1cc(N(C)c2ccnc3ccc(C(F)(F)F)cc23)cc(OC)c1OC` gave a % binding of 100%.

For the compound `CN(C)CCOc1ccc(-c2nc(-c3ccncc3)c(-c3ccc4c(c3)CC/C4=N\O)[nH]2)cc1`, the % of control in assay [5] was 100%.

`N#Cc1cccc(-c2c[nH]c3ncnc(N4CCOCC4)c23)c1`: in assay [6], the % of inhibition is 8%.

As for `CC[C@@H]1[C@H](F)C(=O)N[C@@H]1COc1nccc2cc(C(N)=O)c(OC)cc12` [ZIMLOVISERTIB], in [7], the % of inhibition was determined as 5.58%.

With `CCN(CC)CCCCNc1ncc2cc(-c3cc(OC)cc(OC)c3)c(NC(=O)NC(C)(C)C)nc2n1`, the % of control in [8] is 100%.

Turning to `Cc1cc(F)c(C(=O)Nc2cccc(-c3nncn3C(C)C)n2)cc1-n1cnc(C2CC2)c1`, the % of control in assay [9] is 63%; in [10] it was 100%.

In the case of `CCC(=O)N1CCN(c2ccc(-n3c(=O)ccc4cnc5ccc(-c6cnc7ccccc7c6)cc5c43)cc2C(F)(F)F)CC1`, the % of control in assay [11] amounted to 58%; in assay [12], 19%.

For `CN(C)CC#Cc1ccc2[nH]c3c(c2c1)-c1nc(N)ncc1CCC3`, the % of control in [13] is 1.8%.

Consider `COCC(=O)NC/C=C/c1ccc2ncnc(Nc3ccc(Oc4ccc(C)nc4)c(C)c3)c2c1` [CP-724714], for which, in [14], the % of control came to 80%.
